Measurements published in ChEMBL document CHEMBL4251697 (ACS Med Chem Lett, 2018).
In brackets after ≈: the same amount, converted by molar mass.

Experiments:
[1] = Aqueous equilibrium solubility of compound in pH 6.8 phosphate buffer solution incubated overnight by shake flask based high throughput assay; assay type: physicochemical
[2] = Thermodynamic solubility of compound in pH 6.8 phosphate buffer solution incubated overnight on shaker by shake flask based HPLC analysis; assay type: physicochemical; conditions: read-out: Therm_solubility
[3] = molecular target: Fibroblast growth factor receptor 4 (Homo sapiens, UniProt P22455)
Sequence of Fibroblast growth factor receptor 4 (P22455 whole entry): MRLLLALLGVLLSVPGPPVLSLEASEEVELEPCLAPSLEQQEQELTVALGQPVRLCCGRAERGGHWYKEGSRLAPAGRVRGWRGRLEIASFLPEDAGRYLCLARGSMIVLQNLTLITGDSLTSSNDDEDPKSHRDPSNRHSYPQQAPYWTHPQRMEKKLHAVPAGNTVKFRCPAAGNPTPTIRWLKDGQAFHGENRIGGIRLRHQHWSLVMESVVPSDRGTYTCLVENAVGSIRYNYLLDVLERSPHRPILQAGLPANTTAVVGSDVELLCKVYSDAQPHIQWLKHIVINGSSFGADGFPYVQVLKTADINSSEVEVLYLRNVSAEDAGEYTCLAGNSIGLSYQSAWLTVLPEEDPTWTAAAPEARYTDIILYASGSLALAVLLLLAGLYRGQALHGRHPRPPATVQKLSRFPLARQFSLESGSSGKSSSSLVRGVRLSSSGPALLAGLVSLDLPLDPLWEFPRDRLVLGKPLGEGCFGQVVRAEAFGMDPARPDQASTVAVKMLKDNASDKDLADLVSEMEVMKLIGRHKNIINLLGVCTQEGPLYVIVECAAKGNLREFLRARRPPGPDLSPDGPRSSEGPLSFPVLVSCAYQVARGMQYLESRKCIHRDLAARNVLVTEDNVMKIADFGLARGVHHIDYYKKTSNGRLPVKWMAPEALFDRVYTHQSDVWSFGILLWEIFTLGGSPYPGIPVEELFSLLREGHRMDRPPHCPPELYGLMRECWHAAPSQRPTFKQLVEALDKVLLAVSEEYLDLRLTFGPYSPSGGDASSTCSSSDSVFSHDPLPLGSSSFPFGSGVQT

Row | SMILES | solubility thermodynamic [1] [µM] | solubility thermodynamic [2] [µM] | IC50 [3] [µM]
1 | COCCNc1cc(NC(=O)N(CCOC)c2cccc(C=O)n2)ncc1C#N | > 1000 |  | 
2 | CN(C)CCOc1cc(NC(=O)N2CCCc3cccnc32)ncc1C#N | 173 (≈ 63.4 µg/mL) |  | 
3 | O=Cc1ccc2cccc(C(=O)Nc3ccc(C(F)(F)F)cn3)c2n1 | < 4 | < 2.9 | 
4 | CN(C)CCOc1cc(NC(=O)N2CCCc3ccc(C=O)nc32)ncc1C#N | 300 (≈ 118 µg/mL) |  | 
5 | CN(C(=O)N1CCCc2ccc(C=O)nc21)c1ccc(C(F)(F)F)cn1 |  |  | > 10
6 | O=Cc1ccc2c(n1)N(C(=O)Nc1ccc(C(F)(F)F)cn1)CCC2 | < 4 | 4.9 (≈ 1.72 µg/mL) | 
7 | N#Cc1ccc(NC(=O)N2CCCc3ccc(CO)nc32)nc1 |  |  | > 10
